Read-outs that look alike come from different tables or passages of the source.
Molecular target: recombinant eIF4E (Homo sapiens (Human), UniProt P06730)
Experiment: Fluorescence polarization competition assay for eIF4E binding potency
Outline: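 Competition of test compound against 20 nM EDA-m^7GDP-ATTO-550 for 75 nM recombinant eIF4E, pre-incubated 5 min, in 20 mM Tris pH 7.5, 100 mM NaCl, 1 mM DTT, 0.02% Tween-20, 1% DMSO. Equilibrated 30 min at room temperature, dark; fluorescence polarization read. IC50 from 8-point, 3-fold dilution series.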

[1] = fluorescence polarization competition, 75 nM recombinant eIF4E, 20 nM EDA-m7GDP-ATTO-550, IC50 class, read-out: elF4E FP
[2] = inhibition of eIF4E/EDA-m7GDP-ATTO-550 binding by 50%, Table 4B calculated values, read-out: IC50

recombinant eIF4E, sequence (P06730 whole entry): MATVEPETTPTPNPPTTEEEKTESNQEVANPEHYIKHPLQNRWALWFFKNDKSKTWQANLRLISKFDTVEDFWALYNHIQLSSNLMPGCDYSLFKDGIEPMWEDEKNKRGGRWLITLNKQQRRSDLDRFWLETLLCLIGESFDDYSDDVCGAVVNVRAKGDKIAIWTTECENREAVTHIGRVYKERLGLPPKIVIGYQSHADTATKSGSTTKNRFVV

| IC50 [1] | IC50 [2] | Structure (SMILES) |
| --- | --- | --- |
| < 50 nM | 5.19 nM | Cc1cc(-c2ncc3nc(C)n(CCOc4ccc(Cl)cc4-c4ccc(C)c5c(C(=O)O)csc45)c(=O)c3c2C#N)ccn1 [compound 763] |
| < 50 nM | 9.19 nM | Cc1cc(-c2cc(Cl)ccc2OCCn2c(C)nc3cc(C(F)(F)F)c(-c4ncccn4)nc3c2=O)c2scc(C(=O)O)c2n1 [compound 765] |
| < 50 nM | 7.51 nM | Cc1cc(-c2cc(Cl)ccc2OCCn2c(C)nc3cc(C(F)(F)F)c(-c4ccncn4)nc3c2=O)c2scc(C(=O)O)c2n1 [compound 767] |
| < 50 nM | 22.4 nM | Cc1cc(-c2cc(Cl)ccc2OCCn2c(C)nc3cc(C(F)(F)F)c(-c4cncnc4)nc3c2=O)c2scc(C(=O)O)c2n1 [compound 768] |
| < 50 nM | 23.9 nM | Cc1cc(-c2cc(Cl)ccc2OCCn2c(C)nc3cc(C(F)(F)F)c(-c4ccnc(C)n4)nc3c2=O)c2scc(C(=O)O)c2n1 [compound 769] |
| < 50 nM | 14 nM | Cc1nc2cnc(-c3ccncc3)c(C#N)c2c(=O)n1CC#Cc1ccc(Cl)cc1-c1ccnc2c(C(=O)O)csc12 [compound 770] |
| < 50 nM | 12.8 nM | Cc1cc(-c2cc(Cl)ccc2OCCn2c(C)nc3cnc(C4CC4)c(C#N)c3c2=O)c2scc(C(=O)O)c2c1C [compound 771] |
| < 50 nM | 14.1 nM | COc1sc2c(-c3cc(Cl)ccc3OCCn3c(C)nc4cnc(C5CC5)c(C#N)c4c3=O)ccnc2c1C(=O)O [compound 772] |
| < 50 nM | 10.2 nM | Cc1nc2cnc(C3CC3)c(C#N)c2c(=O)n1CCOc1ccc(Cl)cc1-c1ccc(Cl)c2c(C(=O)O)csc12 [compound 773] |
| < 50 nM | 8.29 nM | CCc1ccc(-c2c(C(F)(F)F)cc3nc(C)n(CCOc4ccc(Cl)cc4-c4cc(C)nc5c(C(=O)O)csc45)c(=O)c3c2C#N)cn1 [compound 774] |
| < 50 nM | 48.3 nM | Cc1cncc(-c2c(C(F)(F)F)cc3nc(C)n(CCOc4ccc(Cl)cc4-c4cc(C)nc5c(C(=O)O)csc45)c(=O)c3c2C#N)c1 [compound 775] |
| 50 to 1000 nM | 53.3 nM | Cc1cc(-c2cc(Cl)ccc2OCCn2c(C)nc3cc(C(F)(F)F)c(-c4cc(F)ccn4)c(C#N)c3c2=O)c2scc(C(=O)O)c2n1 [compound 777] |
| < 50 nM | 0.0702 nM | Cc1cc(-c2c(F)cc3nc(C)n(CCOc4ccc(Cl)cc4-c4cc(C)nc5c(C(=O)O)csc45)c(=O)c3c2C#N)ccn1 [compound 778] |
| < 50 nM | 9.54 nM | Cc1cc(-c2cc(Cl)ccc2OCCn2c(C)nc3cc(C(F)(F)F)c(-c4ccn(C)n4)c(C#N)c3c2=O)c2scc(C(=O)O)c2n1 [compound 779] |
| < 50 nM | 9.6 nM | CC(=O)c1nc2c(=O)n(CCOc3ccc(Cl)cc3-c3cc(C)nc4c(C(=O)O)csc34)c(C)nc2cc1C(F)(F)F [compound 780] |
| < 50 nM | 3.12 nM | Cc1cc(-c2cc(Cl)ccc2OCCn2c(C)nc3cc(C(F)(F)F)c(C(=O)N(C)C)nc3c2=O)c2scc(C(=O)O)c2n1 [compound 781] |
| < 50 nM | 4.03 nM | Cc1cc(-c2cc(Cl)ccc2OCCn2c(C)nc3cc(C(F)(F)F)c(S(C)(=O)=O)nc3c2=O)c2scc(C(=O)O)c2n1 [compound 782] |
| < 50 nM | 14.8 nM | C#Cc1nc2c(=O)n(CCOc3ccc(Cl)cc3-c3cc(C)nc4c(C(=O)O)csc34)c(C)nc2cc1C(F)(F)F [compound 783] |
| < 50 nM | 13.7 nM | CC#Cc1nc2c(=O)n(CCOc3ccc(Cl)cc3-c3cc(C)nc4c(C(=O)O)csc34)c(C)nc2cc1C(F)(F)F [compound 784] |
| < 50 nM | 18.2 nM | Cc1cc(-c2cc(Cl)ccc2OCCn2c(C)nc3cc(C(F)(F)F)c(C#N)nc3c2=O)c2scc(C(=O)O)c2n1 [compound 785] |
| < 50 nM | 10.9 nM | Cc1cc(-c2cc(Cl)ccc2OCCn2c(C)nc3cc(C(F)(F)F)c(-c4ccn(C)n4)nc3c2=O)c2scc(C(=O)O)c2n1 [compound 787] |
| < 50 nM | 8.96 nM | Cc1cc(-c2cc(Cl)ccc2OCCn2c(C)nc3cc(C(F)(F)F)c(C(=O)N(C)C)c(C#N)c3c2=O)c2scc(C(=O)O)c2n1 [compound 789] |
| < 50 nM | 17.8 nM | C#Cc1c(C(F)(F)F)cc2nc(C)n(CCOc3ccc(Cl)cc3-c3cc(C)nc4c(C(=O)O)csc34)c(=O)c2c1C#N [compound 790] |
| < 50 nM | 3.59 nM | Cc1cc(-c2cc(Cl)ccc2OCCn2c(C)nc3cnc(N(C)C)c(C#N)c3c2=O)c2scc(C(=O)O)c2n1 [compound 791] |
| < 50 nM | 2.44 nM | Cc1cc(-c2cc(Cl)ccc2OCCn2c(C)nc3cnc(Cl)c(C#N)c3c2=O)c2scc(C(=O)O)c2n1 [compound 792] |
| < 50 nM | 4.81 nM | CCc1cc(-c2cc(Cl)ccc2OCCn2c(C)nc3cnc(C4CC4)c(C#N)c3c2=O)c2scc(C(=O)O)c2n1 [compound 793] |

| IC50 [1] | IC50 [2] | Structure (SMILES) |
| --- | --- | --- |
| < 50 nM | 3.41 nM | Cc1ccc(-c2cc(Cl)ccc2OCCn2c(C)nc3cnc(C4CC4)c(C#N)c3c2=O)c2scc(C(=O)O)c12 [compound 794] |
| < 50 nM | 12.1 nM | Cc1cc(-c2cc(Cl)ccc2OCCn2c(C)nc3cc(C(F)(F)F)c(C4CC4)nc3c2=O)c2scc(C(=O)O)c2n1 [compound 795] |
| < 50 nM | 3.27 nM | Cc1cc(-c2cc(Cl)ccc2OCCn2c(C)nc3cc(C(F)(F)F)c(N4CC(=O)C4)nc3c2=O)c2scc(C(=O)O)c2n1 [compound 796] |
| < 50 nM | 6.79 nM | Cc1cc(-c2cc(Cl)ccc2OCCn2c(C)nc3cc(C(F)(F)F)c(N4CC(O)C4)nc3c2=O)c2scc(C(=O)O)c2n1 [compound 797] |
| < 50 nM | 9.35 nM | Cc1cc(-c2cc(Cl)ccc2OCCn2c(C)nc3cc(C(F)F)c(N4CC(F)(F)C4)c(C#N)c3c2=O)c2scc(C(=O)O)c2n1 [compound 799] |
| < 50 nM | 32.4 nM | Cc1cc(-c2cc(Cl)ccc2OCCn2c(C)nc3cc(C(F)(F)F)c(N4CCC(C)CC4)nc3c2=O)c2scc(C(=O)O)c2n1 [compound 800] |
| < 50 nM | 17 nM | Cc1cc(-c2cc(Cl)ccc2OCCn2c(C)nc3cc(C(F)(F)F)c(N4CCC(C)(C)CC4)nc3c2=O)c2scc(C(=O)O)c2n1 [compound 801] |
| < 50 nM | 35.9 nM | Cc1cc(-c2cc(Cl)ccc2OCCn2c(C)nc3cc(C(F)(F)F)c(N4CCC(F)(F)CC4)nc3c2=O)c2scc(C(=O)O)c2n1 [compound 802] |
| 50 to 1000 nM | 161 nM | Cc1cc(-c2cc(Cl)ccc2OCCn2c(C)nc3cc(C(F)(F)F)c(N4CCC(C(F)(F)F)CC4)nc3c2=O)c2scc(C(=O)O)c2n1 [compound 803] |
| < 50 nM | 13.6 nM | Cc1cc(-c2cc(Cl)ccc2OCCn2c(C)nc3cc(F)c(C4=CCCC4)c(C#N)c3c2=O)c2scc(C(=O)O)c2n1 [compound 805] |
| < 50 nM | 3.58 nM | Cc1nc2cc(CN(C)C)c(OC(F)F)c(C#N)c2c(=O)n1CCOc1ccc(Cl)cc1-c1cccc(C(=O)O)c1 [compound 806] |
| < 50 nM |  | Cc1cc(-c2cc(Cl)ccc2OCCn2c(C)nc3cnc(C4CC4(F)F)c(C#N)c3c2=O)c2scc(C(=O)O)c2n1 (stereo not shown) [compound 807] |
| 50 to 1000 nM | 52.4 nM | Cc1nc2cc(C(F)(F)F)c(N3CCN(C)CC3)c(C#N)c2c(=O)n1CCOc1ccc(Cl)cc1 [compound 808] |
| < 50 nM | 16 nM | C=Cc1ncc2nc(C)n(CCOc3ccc(Cl)cc3-c3cc(C)nc4c(C(=O)O)csc34)c(=O)c2c1C#N [compound 809] |
| < 50 nM |  | Cc1cc(-c2cc(Cl)ccc2OCCn2c(C)nc3cnc(N4CCN(C)CC4)cc3c2=O)c2scc(C(=O)O)c2n1 [compound 810] |
| 50 to 1000 nM |  | Cc1cc(-c2cc(Cl)ccc2OCCn2c(C)nc3ccc(N4CCN(C)CC4)cc3c2=O)c2scc(C(=O)O)c2n1 [compound 811] |
| < 50 nM | 30 nM | Cc1cc(-c2cc(Cl)ccc2OCCn2c(C)nc3ccc(N4CCN(C)CC4)c(C#N)c3c2=O)c2sc(C)c(C(=O)O)c2n1 [compound 812] |
| < 50 nM | 4.04 nM | CCc1ncc2nc(C)n(CCOc3ccc(Cl)cc3-c3ccnc4c(C(=O)O)csc34)c(=O)c2c1C#N [compound 813] |
| < 50 nM | 3.31 nM | Cc1nc2cnc(N3CCN(C)C(C)(C)C3)c(C#N)c2c(=O)n1CCOc1ccc(Cl)cc1-c1ccnc2c(C(=O)O)csc12 [compound 815] |
| < 50 nM | 6.87 nM | Cc1nc2c(N3CCN(C)CC3(C)C)ncc(C#N)c2c(=O)n1CCOc1ccc(Cl)cc1-c1ccnc2c(C(=O)O)csc12 [compound 816] |
| < 50 nM |  | Cc1nc2c(N3CCN(CCF)C4CC43)ncc(C#N)c2c(=O)n1CCOc1ccc(Cl)cc1-c1ccnc2c(C(=O)O)csc12 (stereo not shown) [compound 817] |
| < 50 nM | 13.1 nM | Cc1nc2c(N3CCN(CC(F)F)C4CC43)ncc(C#N)c2c(=O)n1CCOc1ccc(Cl)cc1-c1ccnc2c(C(=O)O)csc12 (stereo not shown) [compound 818] |
| < 50 nM | 28.2 nM | Cc1nc2cnc(OC3CCNCC3)c(C#N)c2c(=O)n1CCOc1ccc(Cl)cc1-c1ccnc2c(C(=O)O)csc12 [compound 819] |
| < 50 nM | 13.6 nM | Cc1nc2cnc(OC3CCN(CC(F)(F)F)CC3)c(C#N)c2c(=O)n1CCOc1ccc(Cl)cc1-c1ccnc2c(C(=O)O)csc12 [compound 820] |
| < 50 nM | 14.2 nM | Cc1nc2cnc(S(=O)(=O)N3CCN(C)CC3)c(C#N)c2c(=O)n1CCOc1ccc(Cl)cc1-c1ccnc2c(C(=O)O)csc12 [compound 821] |

| Structure (SMILES) | IC50 [1] | IC50 [2] |
| --- | --- | --- |
| CCc1cccc(-c2c(C(F)(F)F)cc3nc(C)n(CCOc4ccc(Cl)cc4-c4cc(C)nc5c(C(=O)O)csc45)c(=O)c3c2C#N)n1 [compound 776] | < 50 nM | 36.5 nM |

Reference: patent US11286268B1, “EIF4E-inhibiting compounds and methods” (EFFECTOR THERAPEUTICS, INC., priority 2019, dated 2022)
